Results as given in article PMC12663368 (Nature Communications, 2025).

Key:
Format in all cases: cell-based
[1] = system: SARS-CoV-2 Wuhan-like Lineage A (Mpro Δ23G/T45I); conditions: for IC50: read-out: Mean of IC50 values ± SD
[2] = system: SARS-CoV-2 Wuhan-like Lineage B (Mpro M49L)
[3] = system: SARS-CoV-2 BA.5 Lineage C (Mpro S144A); conditions: for IC50: read-out: Mean of IC50 values ± SD
[4] = system: SARS-CoV-2 BA.5 Lineage D (Mpro P252L)
[5] = read-out: Mean of IC50 values ± SD

Compound | Fold-change relative to wild-type [1] [fold] | IC50 [1] [µM] | Fold-change relative to wild-type [2] [fold] | IC50 [2, 5] [µM] | Fold-change relative to wild-type [3] [fold] | IC50 [3] [µM] | Resistance level (class by IC50 fold-change) [4] | Resistance level (class by IC50 fold-change) [2] | Fold-change relative to wild-type [4] [fold] | IC50 [4, 5] [µM]
Cn1cnc(Cn2c(=O)[nH]/c(=N\c3cc4cn(C)nc4cc3Cl)n(Cc3cc(F)c(F)cc3F)c2=O)n1 [ensitrelvir] | 32.06 | 16.7 ± 2.29 | 60.08 | 31.2 ± 1.06 | 28.84 | 25.4 ± 8.74 | no meaningful shift | – | – | –
CC(C)(C)[C@H](NC(=O)C(F)(F)F)C(=O)N1C[C@H]2[C@@H]([C@H]1C(=O)N[C@H](C#N)C[C@@H]1CCNC1=O)C2(C)C [nirmatrelvir] | 0.18 | 1.4 ± 0.1 | – | – | 7.60 | 37 ± 0.9 | – | no meaningful shift | 3.83 | 18.6 ± 0.48
remdesivir | – | – | – | – | – | – | – | – | 3.41 | –
